The target of data set [1] is T1, OX1 (Homo sapiens, UniProt O43613).
T1 construct: expressed in transfected cells; host or cells: CHO (CHO-OX1, kept under selection antibiotic)
T1 sequence (O43613 1-425): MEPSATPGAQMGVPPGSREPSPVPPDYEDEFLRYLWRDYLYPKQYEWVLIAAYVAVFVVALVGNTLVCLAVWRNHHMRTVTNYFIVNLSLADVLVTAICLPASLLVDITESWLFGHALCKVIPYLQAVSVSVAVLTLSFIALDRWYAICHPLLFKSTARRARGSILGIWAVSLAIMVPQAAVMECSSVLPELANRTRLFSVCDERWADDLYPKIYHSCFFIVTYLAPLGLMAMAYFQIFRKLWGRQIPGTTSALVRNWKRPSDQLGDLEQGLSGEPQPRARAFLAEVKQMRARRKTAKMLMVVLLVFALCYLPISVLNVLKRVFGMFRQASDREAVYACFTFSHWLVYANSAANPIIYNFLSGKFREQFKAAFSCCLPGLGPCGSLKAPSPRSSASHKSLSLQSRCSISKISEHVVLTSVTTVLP
The experiment in a line: Orexin receptor cell-based functional assay, [Ca2+]i by FLIPR, CHO-OX1 cells. The essentials:
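Antagonist mode FLIPR calcium read in CHO-OX1 and CHO-OX2 lines. Test compounds, dosed 0.1 nM-10 μM, preincubated 30 min after 37° C dye loading with 2.5 mM probenecid (calcium4 for 30 min or calcium6 for 2 h).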

Data set [2] deals with T2, CYP3A4 (Homo sapiens, UniProt P08684).
T2 construct: pre-incubated with human liver microsomes and NADPH; from tissue; host or cells: human liver microsomes
T2 sequence (P08684 whole entry): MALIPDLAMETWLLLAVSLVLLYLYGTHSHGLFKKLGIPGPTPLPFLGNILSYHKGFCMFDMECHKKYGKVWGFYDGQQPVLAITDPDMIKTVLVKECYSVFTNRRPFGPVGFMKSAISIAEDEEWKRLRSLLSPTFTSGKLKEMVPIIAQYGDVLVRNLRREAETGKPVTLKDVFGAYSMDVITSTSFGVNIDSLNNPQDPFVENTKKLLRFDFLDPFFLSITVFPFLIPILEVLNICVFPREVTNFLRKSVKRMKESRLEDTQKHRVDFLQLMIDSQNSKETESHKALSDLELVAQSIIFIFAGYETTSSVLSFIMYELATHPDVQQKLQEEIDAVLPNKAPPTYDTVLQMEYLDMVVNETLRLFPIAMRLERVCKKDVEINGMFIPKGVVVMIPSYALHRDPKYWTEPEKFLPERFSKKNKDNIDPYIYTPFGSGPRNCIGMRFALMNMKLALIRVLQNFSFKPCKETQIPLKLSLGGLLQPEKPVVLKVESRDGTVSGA
The experiment in a line: Cytochrome P450 inhibition assay (midazolam hydroxylation). It is filed as in vitro ADME. To be noted: human, human liver microsomes, probe midazolam (hydroxylation to 1′-hydroxymidazolam), 10 μM test compound, midazolam at approximately its Km. Put shortly:
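Percent inhibition of midazolam 1′-hydroxylation by 10 μM compound was measured, midazolam dosed at about Km. Time-dependent inhibition was probed by a 30 min preincubation of compound with human liver microsomes and NADPH ahead of substrate, compared against samples without preincubation.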
(Liver microsomes are vesicles of endoplasmic reticulum, rich in cytochrome P450 enzymes.)

The mark [3] stands for this setting: CHO-OX1 cells, [Ca2+]i by FLIPR, antagonist dose-range 0.1 nM-10 μM, EC90 of OXA, read-out: OX1.

Where two headings read alike, the source gives them in different places. Where only a bound is given, the exact number is not on record here.

For the compound `Cc1ccc(-c2ccccn2)c(C(=O)N2CCC[C@@H](C)[C@H]2CNc2ccc(C#N)cn2)c1` [Example A60, 6-((((2S,3R)-3-Methyl-1-(5-methyl-2-(pyridin-2-yl)benzoyl)piperidin-2-yl)methyl)amino)nicotinonitrile], the IC50 in data set [1] (setting [3]) came out at 0.49 µM. Further, testing at 10 µM in data set [2] gave an inhibition of 69%.

As for `Cc1ccc(-n2nccn2)c(C(=O)N2CCC[C@@H](C)[C@H]2CNc2ccc(Cl)cn2)c1` [Example A78, ((2S,3R)-2-(((5-Chloropyridin-2-yl)amino)methyl)-3-methylpiperidin-1-yl)(5-methyl-2-(2H-1,2,3-triazol-2-yl)phenyl)methanone], the IC50 in data set [1] (setting [3]) turned out to be 0.007 µM. Besides, 10 µM produced 84% inhibition in data set [2].

For the compound `Cc1ccc(-n2nccn2)c(C(=O)N2CCC[C@@H](C)[C@H]2CNc2cccc(C)n2)c1` [Example A79, ((2S,3R)-3-Methyl-2-(((6-methylpyridin-2-yl)amino)methyl)piperidin-1-yl)(5-methyl-2-(2H-1,2,3-triazol-2-yl)phenyl)methanone], the IC50 in data set [1] (setting [3]) came out at 0.31 µM. For the same compound, in data set [2], at 10 µM the inhibition was 5%.

Consider `COc1cccc(NC[C@@H]2[C@H](C)CCCN2C(=O)c2cc(C)ccc2-n2nccn2)n1` [Example A80, ((2S,3R)-2-(((6-Methoxypyridin-2-yl)amino)methyl)-3-methylpiperidin-1-yl)(5-methyl-2-(2H-1,2,3-triazol-2-yl)phenyl)methanone], for which the IC50 in data set [1] (setting [3]) stood at 1.87 µM. The inhibition at 10 µM in data set [2] was found to be 28%.

As to `Cc1ccc(-n2nccn2)c(C(=O)N2CCC[C@@H](C)[C@H]2CNc2ncc(C(F)(F)F)cc2F)c1` [Example A82, ((2S,3R)-2-(((3-Fluoro-5-(trifluoromethyl)pyridin-2-yl)amino)methyl)-3-methylpiperidin-1-yl)(5-methyl-2-(2H-1,2,3-triazol-2-yl)phenyl)methanone], the IC50 in data set [1] (setting [3]) is 0.008 µM. Besides, the inhibition at 10 µM in data set [2] stood at 68%.

In the case of `Cc1nc(C(=O)N2CCC[C@@H](C)[C@H]2CNc2ccc(C(F)(F)F)cn2)c(-c2ccc(F)cc2)s1` [Example A85, (5-(4-Fluorophenyl)-2-methylthiazol-4-yl)((2S,3R)-3-methyl-2-(((5-(trifluoromethyl)pyridin-2-yl)amino)methyl)piperidin-1-yl)methanone], the IC50 in data set [1] (setting [3]) stood at 0.002 µM; in data set [1] (Table 6, racemate vs enantiomers, read-out: OX1 IC50), 0.002 µM. The same compound registered an inhibition at 10 µM in data set [2] of 9%.

As to `Cc1ccc(-c2cnn(C)c2)c(C(=O)N2CCC[C@@H](C)[C@H]2CNc2cccc(C)n2)c1` [Example A87, ((2S,3R)-3-Methyl-2-(((6-methylpyridin-2-yl)amino)methyl)piperidin-1-yl)(5-methyl-2-(1-methyl-1H-pyrazol-4-yl)phenyl)methanone], in data set [1] (setting [3]), the IC50 was 0.22 µM. For the same compound, 10 µM produced 73% inhibition in data set [2].

As for `Cc1ccc(-n2nccn2)c(C(=O)N2CCC[C@@H](C)[C@H]2CNc2ncccc2C(F)(F)F)c1` [Example A88, ((2S,3R)-3-Methyl-2-(((3-(trifluoromethyl)pyridin-2-yl)amino)methyl)piperidin-1-yl)(5-methyl-2-(2H-1,2,3-triazol-2-yl)phenyl)methanone], the IC50 in data set [1] (setting [3]) came to 0.6 µM. Besides, in data set [2], the inhibition at 10 µM came to 75%.

For `Cc1ccc(-c2cnn(C)c2)c(C(=O)N2CCC[C@@H](C)[C@H]2CNc2ncccc2C(F)(F)F)c1` [Example A93, ((2S,3R)-3-Methyl-2-(((3-(trifluoromethyl)pyridin-2-yl)amino)methyl)piperidin-1-yl)(5-methyl-2-(1-methyl-1H-pyrazol-4-yl)phenyl)methanone], the IC50 in data set [1] (setting [3]) turned out to be 0.46 µM. In data set [2], this compound gave an inhibition at 10 µM of 96%.

On to `Cc1ccc(-c2cnn(C)c2)c(C(=O)N2CCC[C@@H](C)[C@H]2CNc2ncccc2C#N)c1` [Example A95, 2-((((2S,3R)-3-Methyl-1-(5-methyl-2-(1-methyl-1H-pyrazol-4-yl)benzoyl)piperidin-2-yl)methyl)amino)nicotinonitrile], for which the IC50 in data set [1] (setting [3]) is over 1 µM. In data set [2], this compound showed an inhibition at 10 µM of 88%.

For `COc1cccnc1NC[C@@H]1[C@H](C)CCCN1C(=O)c1cc(C)ccc1-n1nccn1` [Example A98, ((2S,3R)-2-(((3-Methoxypyridin-2-yl)amino)methyl)-3-methylpiperidin-1-yl)(5-methyl-2-(2H-1,2,3-triazol-2-yl)phenyl)methanone], in data set [1] (setting [3]), the IC50 turned out to be 0.27 µM. Besides, in data set [2], 10 µM produced 48% inhibition.

In the case of `Cc1ccc(-n2nccn2)c(C(=O)N2CCC[C@@H](C)[C@H]2CNc2ncccc2C)c1` [Example A99, ((2S,3R)-3-Methyl-2-(((3-methylpyridin-2-yl)amino)methyl)piperidin-1-yl)(5-methyl-2-(2H-1,2,3-triazol-2-yl)phenyl)methanone], the IC50 in data set [1] (setting [3]) was 0.34 µM. In addition, testing at 10 µM in data set [2] gave an inhibition of 52%.

Consider `Cc1ccc(-c2cnn(C)c2)c(C(=O)N2CCC[C@@H](C)[C@H]2CNc2ncccc2C)c1` [Example A100, ((2S,3R)-3-Methyl-2-(((3-methylpyridin-2-yl)amino)methyl)piperidin-1-yl)(5-methyl-2-(1-methyl-1H-pyrazol-4-yl)phenyl)methanone], for which the IC50 in data set [1] (setting [3]) came out at 1.3 µM. In addition, in data set [2], the inhibition at 10 µM worked out at 85%.

Turning to `Cc1ccc(-n2cc(C)cn2)c(C(=O)N2CCC[C@@H](C)[C@H]2CNc2ccc(C(F)(F)F)cn2)c1` [Example A107, ((2S,3R)-3-Methyl-2-(((5-(trifluoromethyl)pyridin-2-yl)amino)methyl)piperidin-1-yl)(5-methyl-2-(4-methyl-1H-pyrazol-1-yl)phenyl)methanone], the IC50 in data set [1] (setting [3]) turned out to be 0.004 µM. This compound showed an inhibition at 10 µM in data set [2] of 91%.

With `CCn1cc(-c2ccc(C)cc2C(=O)N2CCC[C@@H](C)[C@H]2CNc2ccc(C(F)(F)F)cn2)cn1` [Example A110, (2-(1-Ethyl-1H-pyrazol-4-yl)-5-methylphenyl)((2S,3R)-3-methyl-2-(((5-(trifluoromethyl)pyridin-2-yl)amino)methyl)piperidin-1-yl)methanone], the IC50 in data set [1] (setting [3]) was 0.016 µM. The compound also showed an inhibition at 10 µM in data set [2] of 95%.

Take `Cc1ccc(-c2cnn(C(C)C)c2)c(C(=O)N2CCC[C@@H](C)[C@H]2CNc2ccc(C(F)(F)F)cn2)c1` [Example A111, (2-(1-Isopropyl-1H-pyrazol-4-yl)-5-methylphenyl)((2S,3R)-3-methyl-2-(((5-(trifluoromethyl)pyridin-2-yl)amino)methyl)piperidin-1-yl)methanone]: in data set [1] (setting [3]), the IC50 amounted to 0.017 µM. The compound also showed an inhibition at 10 µM in data set [2] of 96%.

Take `Cc1ccc(-n2ncc(C)n2)c(C(=O)N2CCC[C@@H](C)[C@H]2CNc2ccc(C(F)(F)F)cn2)c1` [Example A112, ((2S,3R)-3-Methyl-2-(((5-(trifluoromethyl)pyridin-2-yl)amino)methyl)piperidin-1-yl)(5-methyl-2-(4-methyl-2H-1,2,3-triazol-2-yl)phenyl)methanone]: in data set [1] (setting [3]), the IC50 was 0.002 µM. At 10 µM the inhibition in data set [2] was 84%.

In the case of `Cc1ccc(-n2ccc(C)n2)c(C(=O)N2CCC[C@@H](C)[C@H]2CNc2nc3cc(Cl)ccc3o2)c1` [Example A115, ((2S,3R)-2-(((5-Chlorobenzo[d]oxazol-2-yl)amino)methyl)-3-methylpiperidin-1-yl)(5-methyl-2-(3-methyl-1H-pyrazol-1-yl)phenyl)methanone], the IC50 in data set [1] (setting [3]) turned out to be 0.016 µM. In data set [2], this compound showed an inhibition at 10 µM of 90%.

On to `Cc1ccc(-n2ncc(C)n2)c(C(=O)N2CCC[C@@H](C)[C@H]2CNc2nc3cc(Cl)ccc3o2)c1` [Example A116, ((2S,3R)-2-(((5-Chlorobenzo[d]oxazol-2-yl)amino)methyl)-3-methylpiperidin-1-yl)(5-methyl-2-(4-methyl-2H-1,2,3-triazol-2-yl)phenyl)methanone], for which the IC50 in data set [1] (setting [3]) was 0.004 µM. In data set [2], testing at 10 µM gave an inhibition of 75%.

For the compound `Cc1ccc(-c2ccccn2)c(C(=O)N2CCC[C@@H](C)[C@H]2CNc2ccc(Cl)cn2)c1` [Example A117, ((2S,3R)-2-(((5-chloropyridin-2-yl)amino)methyl)-3-methylpiperidin-1-yl)(5-methyl-2-(pyridin-2-yl)phenyl)methanone], in data set [1] (setting [3]), the IC50 was 0.037 µM. This compound also had an inhibition at 10 µM in data set [2] of 92%.

Regarding `Cc1ccc(-n2nccn2)c(C(=O)N2CCC[C@@H](C)[C@H]2CNc2ccc(C(F)(F)F)nn2)c1` [Example A119, ((2S,3R)-3-Methyl-2-(((6-(trifluoromethyl)pyridazin-3-yl)amino)methyl)piperidin-1-yl)(5-methyl-2-(2H-1,2,3-triazol-2-yl)phenyl)methanone], the IC50 in data set [1] (setting [3]) was found to be 0.019 µM. The compound further displayed an inhibition at 10 µM in data set [2] of 59%.

With `Cc1ccc(-n2ccc(C)n2)c(C(=O)N2CCC[C@@H](C)[C@H]2CNc2ccc(Cl)cn2)c1` [Example A120, ((2S,3R)-2-(((5-Chloropyridin-2-yl)amino)methyl)-3-methylpiperidin-1-yl)(5-methyl-2-(3-methyl-1H-pyrazol-1-yl)phenyl)methanone], the IC50 in data set [1] (setting [3]) stood at 0.021 µM. The same compound showed an inhibition at 10 µM in data set [2] of 90%.

Usually inhibition stands for the percentage by which the read-out fell short of the control.

The record behind these values is patent US9440982B2 (Eolas Therapeutics, Inc., priority 2012, dated 2016).
